# Tested on: U2OS
# Test: Anti-invasive activity against human U2OS cells assessed as cell invasion at 2.5 uM
# Format: functional
# Conditions: not given
row,Compound,inhibition at 2.5 µM [%]
1,O=C(Nc1ccc(-c2nc3ccccc3[nH]2)cc1)c1ccc(C(=O)Nc2ccc(-c3nc4ccccc4[nH]3)cc2)cc1,80
2,O=C(O)c1ccc2c(c1)C(=O)N(c1ccc(NC(=O)c3cccc(C(=O)Nc4ccc(N5C(=O)c6ccc(C(=O)O)cc6C5=O)cc4Cl)c3)c(Cl)c1)C2=O,75

# Tested on: not listed separately
# Test: Anti-angiogenic activity in human endothelial cells assessed as reduction in cell growth
# Conditions: not given
row,Compound,IC50 [nM]
1,COc1ccc(N2C(=O)c3ccc(C(=O)O)cc3C2=O)cc1-c1nc2cc(-c3cc(F)cc(F)c3)ccc2o1,< 10000
2,CCCNc1ccc(N2C(=O)c3ccc(C(=O)O)cc3C2=O)cc1-c1nc2cc(-c3ccc(Cl)cc3)ccc2o1,200
3,COc1ccc(-c2nc3cc(-c4ccc(F)cc4)ccc3o2)cc1N1C(=O)c2ccc(C(=O)O)cc2C1=O,< 10000
4,COc1ccc(N2C(=O)c3ccc(C(=O)O)cc3C2=O)cc1-c1nc2cc(-c3ccc4c(c3)OCO4)ccc2o1,750
5,COCCOc1ccc(-c2nc3cc(-c4ccccc4)ccc3o2)cc1N1C(=O)c2ccc(C(=O)O)cc2C1=O,5000
6,CCCNc1ccc(N2C(=O)c3ccc(C(=O)O)cc3C2=O)cc1-c1nc2cc(-c3ccc(OC(F)(F)F)cc3)ccc2o1,200
7,CCCNc1ccc(N2C(=O)c3ccc(C(=O)O)cc3C2=O)cc1-c1nc2cc(-c3ccc(C(F)(F)F)cc3)ccc2o1,200
8,CCCNc1ccc(N2C(=O)c3ccc(C(=O)O)cc3C2=O)cc1-c1nc2cc(-c3ccc(F)cc3)ccc2o1,200
9,CCCNc1ccc(N2C(=O)c3ccc(C(=O)O)cc3C2=O)cc1-c1nc2cc(-c3cccc(Cl)c3)ccc2o1,200
10,CCCNc1ccc(N2C(=O)c3ccc(C(=O)O)cc3C2=O)cc1-c1nc2cc(-c3ccc(F)c(Cl)c3)ccc2o1,200
11,COc1ccc(-c2nc3cc(-c4cccc(-c5ccccc5)c4)ccc3o2)cc1N1C(=O)c2ccc(C(=O)O)cc2C1=O,1000
12,O=C(O)c1ccc2c(c1)C(=O)N(c1cccc(-c3nc4cc(-c5cccc(-c6ccccc6)c5)ccc4o3)c1)C2=O,1000

# Tested on: HepG2
# Test: Antiproliferative activity against human HepG2 cells assessed as reduction in cell viability measured after 24 hrs by MTT assay
# Format: functional, cell-based
# Conditions: HepG2, 24 h
row,IC50 [nM],Compound
1,11900,Oc1c(I)cc(I)cc1-c1nn2c(-c3ccccc3)nnc2s1
2,18400,Oc1ccc(I)cc1-c1nn2c(-c3ccccc3)nnc2s1
3,14900,O=C(Nn1c(-c2ccccc2)n[nH]c1=S)c1cc(I)cc(I)c1O

# Tested on: HT-1080
# Test: Inhibition of cell invasion in human HT-1080 cells
# Conditions: not given
row,IC50 [nM],Compound
1,1500,CCCCCCCCCCCCCCCC(=O)C1=C(OCc2ccccc2)[C@@H](CO)OC1=O

# Target: T1, Heparanase (Homo sapiens, UniProt Q9Y251)
# T1 sequence (Q9Y251 whole entry): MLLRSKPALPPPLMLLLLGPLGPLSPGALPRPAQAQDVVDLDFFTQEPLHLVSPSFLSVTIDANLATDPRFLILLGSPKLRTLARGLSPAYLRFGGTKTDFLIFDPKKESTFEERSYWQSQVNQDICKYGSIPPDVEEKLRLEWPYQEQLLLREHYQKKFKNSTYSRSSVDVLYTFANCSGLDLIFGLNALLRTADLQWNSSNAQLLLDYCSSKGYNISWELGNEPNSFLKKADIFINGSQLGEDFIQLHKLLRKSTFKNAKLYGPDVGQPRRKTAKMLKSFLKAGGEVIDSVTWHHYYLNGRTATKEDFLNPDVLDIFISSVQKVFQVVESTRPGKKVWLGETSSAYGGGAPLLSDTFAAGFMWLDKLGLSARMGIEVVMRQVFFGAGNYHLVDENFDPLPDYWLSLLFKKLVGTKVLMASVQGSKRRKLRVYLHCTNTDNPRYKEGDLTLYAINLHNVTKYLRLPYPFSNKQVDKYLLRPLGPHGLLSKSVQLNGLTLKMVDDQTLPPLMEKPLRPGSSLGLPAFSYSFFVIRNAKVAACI
# Test: Inhibition of heparanase (unknown origin)
# Conditions: not given
row,IC50 [nM],Compound
1,10000,COc1cccc(-n2nc(C(=O)O)cc2-c2ccc(C3CCCCC3)c(Cl)c2)c1

# Tested on: not listed separately
# Test: Antiproliferative activity against mouse Lewis lung carcinoma cells assessed as reduction in cell viability measured after 24 hrs by MTT assay
# Format: functional, cell-based
# Conditions: not given
row,Compound,IC50 [nM]
1,Oc1c(I)cc(I)cc1-c1nn2c(-c3ccccc3)nnc2s1,8300
2,Oc1ccc(I)cc1-c1nn2c(-c3ccccc3)nnc2s1,16600
3,O=C(Nn1c(-c2ccccc2)n[nH]c1=S)c1cc(I)cc(I)c1O,11800

# From ChEMBL document CHEMBL5325445, “Discovery and development of small-molecule heparanase inhibitors” (Bioorg Med Chem, 2023)
